Test results reported in patent EP0629400B1 (TAKEDA CHEMICAL INDUSTRIES, LTD., priority 1993, dated 1994).

Experiments:
[1] = tested on: patients with Alzheimer's disease; details: 45 mg twice a day (daily dose 90 mg); cited from earlier work
mouse astroglias = details: cited from earlier work
[2] = tested on: Patients with Alzheimer type dementia; assay: Double-blind controlled study, efficacy by Alzheimer's Disease Assessment Scale (ADAS); assay type: in vivo; details: for Score Difference after 6 Months of Administration (mean ± SD): ADAS, n=100, severity increases as the value increases
Procedure: A double-blind controlled study was conducted in patients with Alzheimer type dementia.
There was no bias in background factors or pre-administration values for efficacy evaluation index among the three groups. Efficacy was evaluated by the Alzheimer's Disease Assessment Scale (ADAS) [American Journal of Psychiatry, Vol. 141, pp. 1356-1364, (1984)], an index for rating the therapeutic effect on Alzheimer's disease recommended by the FDA and all over the world. The results were statistically analyzed to rate the efficacy.
The drugs administered to the patients in the experiment were the tablet preparations of Example 1 and Comparative Examples 1 and 2 above.

COC1=C(OC)C(=O)C(CCCCCCCCCCO)=C(C)C1=O [idebenone, 6-(10-hydroxydecyl)-2,3-dimethoxy-5-methyl-1,4-benzoquinone]
efficacy in patients with Alzheimer's disease [1]: proved effective | nerve growth factor (NGF) secretion (mouse astroglias): induction and promotion of nerve growth factor (NGF) secretion | symptoms of Alzheimer's disease ([2]; 90 mg 3 times a day, compared with 30 mg 3 times a day and placebo): improvement of statistical significance | Score Difference after 6 Months of Administration (mean ± SD) ([2]; 30 mg TID oral after meals (tablets of Comparative Example 1)): -5.5 ± 7.2 | Score Difference after 6 Months of Administration (mean ± SD) ([2]; 90 mg TID oral after meals (tablets of Example 1)): -8.0 ± 8.5
